Test results taken from publication PMC11985001, “Melatonin rescues cell respiration impaired by hypoxia/reoxygenation in aortic endothelial cells and affects the mitochondrial bioenergetics targeting the F1FO-ATPase” (Redox Biology, 2025).

Key:
[1] = biological target: T1, F1 domain of mitochondrial F1FO-ATPase (F1-ATPase) (Sus scrofa, UniProt K7GLT8+P80021); assay: ATP hydrolysis (Pi release) with partially purified F1, […] NBD-Cl; assay type: biochemical
T1 construct: gene ATP5F1B; partially purified F1 domain from swine heart mitochondria; with other subunits of the F1 complex
T1 sequence (K7GLT8 89-570): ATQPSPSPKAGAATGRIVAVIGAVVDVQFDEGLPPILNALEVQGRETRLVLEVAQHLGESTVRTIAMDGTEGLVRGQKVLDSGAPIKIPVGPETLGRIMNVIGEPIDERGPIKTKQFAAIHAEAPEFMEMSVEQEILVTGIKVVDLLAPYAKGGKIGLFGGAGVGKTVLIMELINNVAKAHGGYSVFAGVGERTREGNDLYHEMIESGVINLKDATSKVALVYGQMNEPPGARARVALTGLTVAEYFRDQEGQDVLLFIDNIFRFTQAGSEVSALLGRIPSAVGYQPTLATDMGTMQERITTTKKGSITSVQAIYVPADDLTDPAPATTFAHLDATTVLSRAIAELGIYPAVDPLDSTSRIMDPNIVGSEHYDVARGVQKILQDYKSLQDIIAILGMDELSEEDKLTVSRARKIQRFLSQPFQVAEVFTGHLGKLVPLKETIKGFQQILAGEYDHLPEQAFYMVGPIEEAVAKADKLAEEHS
T1 sequence (P80021 44-553): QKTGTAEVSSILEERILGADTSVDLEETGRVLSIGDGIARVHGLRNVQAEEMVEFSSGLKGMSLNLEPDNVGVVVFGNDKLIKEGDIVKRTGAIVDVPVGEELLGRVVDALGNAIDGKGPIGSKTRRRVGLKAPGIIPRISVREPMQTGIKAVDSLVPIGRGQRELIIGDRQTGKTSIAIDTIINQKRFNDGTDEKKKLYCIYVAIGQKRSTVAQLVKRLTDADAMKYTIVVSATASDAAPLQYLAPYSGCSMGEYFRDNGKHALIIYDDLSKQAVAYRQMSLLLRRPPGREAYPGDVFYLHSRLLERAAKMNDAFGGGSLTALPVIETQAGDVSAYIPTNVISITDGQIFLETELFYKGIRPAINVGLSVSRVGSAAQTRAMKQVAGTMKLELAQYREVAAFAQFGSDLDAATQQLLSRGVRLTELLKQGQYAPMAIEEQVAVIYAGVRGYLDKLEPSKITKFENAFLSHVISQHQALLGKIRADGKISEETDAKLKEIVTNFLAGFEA
T1 sequence (A0A286ZYL7 23-168 partner): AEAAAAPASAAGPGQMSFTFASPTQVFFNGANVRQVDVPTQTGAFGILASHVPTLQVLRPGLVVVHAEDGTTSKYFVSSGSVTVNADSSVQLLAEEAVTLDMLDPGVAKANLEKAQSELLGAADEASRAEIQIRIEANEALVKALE
T1 sequence (A5GFX4 2-51 partner): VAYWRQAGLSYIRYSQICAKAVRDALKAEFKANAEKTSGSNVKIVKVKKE

[2] = biological target: T2, F1 domain of mitochondrial F1FO-ATPase (Ca2+-activated F1-ATPase) (Sus scrofa, UniProt K7GLT8+P80021); assay: ATP hydrolysis (Pi release) with partially purified F1 at […] melatonin; IC50 from the mitochondrial Ca2+-activated F1FO-ATPase (K'i […]); assay type: biochemical
T2 construct: gene ATP5F1B; native whole F1FO-ATPase in frozen-thawed pig heart mitochondria; not purified F1
T2 sequence (K7GLT8 89-570): as the sequence (K7GLT8 89-570) above
T2 sequence (P80021 44-553): as the sequence (P80021 44-553) above
T2 sequence (A0A286ZYL7 23-168 partner): as the sequence (A0A286ZYL7 23-168 partner) above
T2 sequence (A5GFX4 2-51 partner): as the sequence (A5GFX4 2-51 partner) above
T2 sequence (Q2EN81 24-213 partner): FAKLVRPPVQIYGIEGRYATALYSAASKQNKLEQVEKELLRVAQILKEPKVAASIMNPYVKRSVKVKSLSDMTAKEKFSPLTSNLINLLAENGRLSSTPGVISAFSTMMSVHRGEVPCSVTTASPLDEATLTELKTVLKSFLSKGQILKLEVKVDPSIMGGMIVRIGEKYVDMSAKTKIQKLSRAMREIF
T2 sequence (Q35915 whole entry partner, the tested form may be a part): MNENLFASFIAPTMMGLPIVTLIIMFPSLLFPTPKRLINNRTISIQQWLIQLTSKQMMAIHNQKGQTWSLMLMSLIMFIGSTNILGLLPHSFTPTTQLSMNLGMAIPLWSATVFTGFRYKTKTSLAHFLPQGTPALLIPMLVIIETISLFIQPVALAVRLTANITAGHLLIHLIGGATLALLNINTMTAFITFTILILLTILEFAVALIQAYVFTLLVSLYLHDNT

O=[N+]([O-])c1ccc(Cl)c2nonc12 [NBD-Cl]
ATP hydrolysis (Pi release) with partially purified F1, 75 μM NBD-Cl [1]: F1-ATPase activity was insensitive to oligomycin and was inhibited by NBD-Cl.

COc1ccc2[nH]cc(CCNC(C)=O)c2c1 [melatonin]
IC50 [2]: 6.63 ± 2.33 mM
